Like-named read-outs stand apart in the source and are kept apart here.
Tests used:
MB49 tumor = test: MB49 efficacy studies; assay type: in vivo, C57BL/6 mice
CT26 cells = test: CT26 cell viability; assay type: cell-based
G-CSF = test: Serum cytokine induction in mice (G-CSF screen); assay type: in vivo, BALB/c mice
From the text: No. MKC00B) • IL-18 (R&D Systems, Cat. […] Systems, Cat. No. […])

AML cell lines = test: AML cell line sensitivity, summary over the panel; assay type: cell-based; conditions: all of these lines
Protocol: (§1) SET-2, RS4;11, and SKM-1 cells were purchased from DSMZ. HL-60, MV4;11, OCI-AML2, NB4, MOLM-13, NOMO-1, DAOY, HEL, IMR-5, K562, Kasumi-1, ONS-76, RDES-1, and TC-71 cells were a gift from Alex Kentsis and verified using STR genotyping (Genetica). […] MCF-7, Jurkat, THP-1, U937, HL-60, MV4;11, OCI-AML2, NB4, MOLM-13, NOMO-1, HEL, K562, SET-2, RS4;11, SKM-1 and Kasumi-1 were grown in RPMI-1640 medium with 10% FBS. All cells were grown at 37° C. in a 5% CO2 incubator. Cell lines were tested for mycoplasma using the MycoAlert Mycoplasma Detection Kit (Lonza).
(§2) Cells were plated (2000 cells/well) in white, 384-well clear bottom plates using an EL406 Microplate Washer/Dispenser (BioTek) in 25 μL final volume of media. Compounds were added using a pintool (CyBio) and cells were incubated for 48 h at 37° C. Assay plates were then removed from the incubator and allowed to equilibrate to room temperature on the bench top before addition of 10 μL of CellTiter-Glo reagent (Promega) according to the manufacturer's instructions. Assay plates were shaken on an orbital shaker for 2 minutes and incubated at room temperature on the bench top for 10 minutes. Luminescence was then read using a Cytation 5 Cell Imaging Multi-Mode Reader (BioTek). (FIG. 6)

NB4 cells = test: Cell line drug sensitivity (CellTiter-Glo); assay type: cell-based; conditions: Homo sapiens, NB-4, 48 h
DAOY cells = test: Cell line drug sensitivity (CellTiter-Glo); assay type: cell-based; conditions: 48 h
Protocol: as §1, §2

Jurkat cells = test: Cell line drug sensitivity (CellTiter-Glo); assay type: cell-based; conditions: 48 h
Protocol: as §1, §2

THP-1 cells = test: Cell line drug sensitivity (CellTiter-Glo); assay type: cell-based
Protocol: as §1, §2

MOLM-13 cells = test: Cell line drug sensitivity (CellTiter-Glo); assay type: cell-based
Protocol: as §1, §2

HEL cells = test: Cell line drug sensitivity (CellTiter-Glo); assay type: cell-based
Protocol: as §1, §2

NOMO-1 cells = test: Cell line drug sensitivity (CellTiter-Glo); assay type: cell-based
Protocol: as §1, §2

SET-2 cells = test: Cell line drug sensitivity (CellTiter-Glo); assay type: cell-based
Protocol: as §1, §2

RDES-1 cells = test: Cell line drug sensitivity (CellTiter-Glo); assay type: cell-based; conditions: 48 h
Protocol: as §1, §2

ONS-76 cells = test: Cell line drug sensitivity (CellTiter-Glo); assay type: cell-based
Protocol: as §1, §2

U937 cells = test: Cell line drug sensitivity (CellTiter-Glo); assay type: cell-based
Protocol: as §1, §2

IMR-5 cells = test: Cell line drug sensitivity (CellTiter-Glo); assay type: cell-based
Protocol: as §1, §2

OCI-AML3 cells = test: Cell line drug sensitivity (CellTiter-Glo); assay type: cell-based
Protocol: as §1, §2

HT-1080 cells = test: Cell line drug sensitivity (CellTiter-Glo); assay type: cell-based
Protocol: as §1, §2

KG-1 cells = test: Cell line drug sensitivity (CellTiter-Glo); assay type: cell-based
Protocol: as §1, §2

TC-71 cells = test: Cell line drug sensitivity (CellTiter-Glo); assay type: cell-based
Protocol: as §1, §2

SKM-1 cells = test: Cell line drug sensitivity (CellTiter-Glo); assay type: cell-based
Protocol: as §1, §2

MCF7 cells = test: Cell line drug sensitivity (CellTiter-Glo); assay type: cell-based
Protocol: as §1, §2

Kasumi-1 cells = test: Cell line drug sensitivity (CellTiter-Glo); assay type: cell-based
Protocol: as §1, §2

K562 cells = test: Cell line drug sensitivity (CellTiter-Glo); assay type: cell-based
Protocol: as §1, §2

HL-60 cells = test: Cell line drug sensitivity (CellTiter-Glo); assay type: cell-based
Protocol: as §1, §2

MV4;11 cells = test: Cell line drug sensitivity (CellTiter-Glo); assay type: cell-based; conditions: Homo sapiens, MV4-11, 48 h
RS4;11 cells = test: Cell line drug sensitivity (CellTiter-Glo); assay type: cell-based
[1] = in comparison to Val-boroPro
[2] = MTD (survival) of ARI-4268; assay type: in vivo; conditions: without PGE2 inhibitor, compared with Val-boroPro
PGE2 = test: Peritoneal PGE2 levels after dosing; assay type: in vivo; conditions: even at substantially higher doses than Val-boroPro
rhabdomyosarcoma = conditions: established rhabdomyosarcoma, preclinical; cited from earlier work

## Cc1ccc(-c2cc(C(F)(F)F)nn2-c2ccc(S(N)(=O)=O)cc2)cc1 [celecoxib]
MB49 tumor; celecoxib alone, various concentrations
  Tumor growth rate: no observed differences in tumor growth rates compared to control

## CC(C)C[C@H](NC(=O)[C@H](Cc1ccccc1)NC(=O)c1cnccn1)B(O)O [Bortezomib]
CT26 cells; Mus musculus, CT26
  EC50: 0.036 µM

## C[C@H](N)C(=S)N1CCC[C@H]1B(O)O [ARI-2243]
CT26 cells
  EC50: > 1000 µM
G-CSF; 20 μg/animal PO
  Average [G-CSF] at 6 hrs: 330 pg/mL
G-CSF; 50 μg/animal IP
  Average [G-CSF] at 6 hrs: 2100 pg/mL
G-CSF; 100 μg/animal IP
  Average [G-CSF] at 6 hrs: 2400 pg/mL
G-CSF; 300 μg/animal IP
  Average [G-CSF] at 6 hrs: 4400 pg/mL

## CC1([C@H](N)C(=O)N2CCC[C@H]2B(O)O)CCCCC1 (relative stereo) [ARI-4175CH]
AML cell lines
  IC50 values over the sensitive AML cell lines: low (single digit) nanomolar
CT26 cells; Mus musculus, CT26
  EC50: > 1000 µM
NB4 cells
  IC50: 0.003 µM
DAOY cells; Homo sapiens, Daoy
  IC50: > 60 µM
Jurkat cells; Homo sapiens
  IC50: > 60 µM
THP-1 cells; Homo sapiens, THP-1, 48 h
  IC50: 0.006 µM
MOLM-13 cells; Homo sapiens, MOLM-13, 48 h
  IC50: 0.006 µM
HEL cells; Homo sapiens, 48 h
  IC50: > 60 µM
NOMO-1 cells; Homo sapiens, NOMO-1, 48 h
  IC50: 0.004 µM
SET-2 cells; Homo sapiens, SET-2, 48 h
  IC50: 0.001 µM
RDES-1 cells
  IC50: > 60 µM
ONS-76 cells; Homo sapiens, ONS-76, 48 h
  IC50: > 60 µM
U937 cells; Homo sapiens, U-937, 48 h
  IC50: > 60 µM
IMR-5 cells; Homo sapiens, IMR-5, 48 h
  IC50: > 60 µM
OCI-AML3 cells; Homo sapiens, OCI-AML-3, 48 h
  IC50: 0.003 µM
HT-1080 cells; Homo sapiens, HT-1080, 48 h
  IC50: > 60 µM
KG-1 cells; Homo sapiens, KG-1, 48 h
  IC50: 0.049 µM
TC-71 cells; TC-71, 48 h
  IC50: > 60 µM
SKM-1 cells; Homo sapiens, SKM-1, 48 h
  IC50: 0.001 µM
MCF7 cells; Homo sapiens, MCF7, 48 h
  IC50: > 60 µM
Kasumi-1 cells; Homo sapiens, Kasumi 1, 48 h
  IC50: > 60 µM
K562 cells; Homo sapiens, K562, 48 h
  IC50: > 60 µM
HL-60 cells; Homo sapiens, HL-60, 48 h
  IC50: 0.003 µM
MV4;11 cells
  IC50: 0.003 µM
RS4;11 cells; Homo sapiens, RS4-11, 48 h
  IC50: 0.013 µM

## N[C@H](C(=O)N1CCC[C@H]1B(O)O)C12CC3CC(CC(C3)C1)C2 (relative stereo) [ARI-5544, Gly(1-adamantyl)-boroPro]
AML cell lines
  IC50 values over the sensitive AML cell lines: low (single digit) nanomolar
CT26 cells; Mus musculus, CT26
  EC50: > 100 µM
NB4 cells
  IC50: 0.003 µM
DAOY cells; Homo sapiens, Daoy
  IC50: > 60 µM
Jurkat cells; Homo sapiens
  IC50: > 60 µM
THP-1 cells; Homo sapiens, THP-1, 48 h
  IC50: 0.005 µM
MOLM-13 cells; Homo sapiens, MOLM-13, 48 h
  IC50: 0.005 µM
HEL cells; Homo sapiens, 48 h
  IC50: > 60 µM
NOMO-1 cells; Homo sapiens, NOMO-1, 48 h
  IC50: 0.005 µM
SET-2 cells; Homo sapiens, SET-2, 48 h
  IC50: 0.0002 µM
RDES-1 cells
  IC50: > 60 µM
ONS-76 cells; Homo sapiens, ONS-76, 48 h
  IC50: > 60 µM
U937 cells; Homo sapiens, U-937, 48 h
  IC50: > 60 µM
IMR-5 cells; Homo sapiens, IMR-5, 48 h
  IC50: > 60 µM
OCI-AML3 cells; Homo sapiens, OCI-AML-3, 48 h
  IC50: 0.002 µM
HT-1080 cells; Homo sapiens, HT-1080, 48 h
  IC50: > 60 µM
KG-1 cells; Homo sapiens, KG-1, 48 h
  IC50: 0.005 µM
TC-71 cells; TC-71, 48 h
  IC50: > 60 µM
SKM-1 cells; Homo sapiens, SKM-1, 48 h
  IC50: 0.0004 µM
MCF7 cells; Homo sapiens, MCF7, 48 h
  IC50: > 60 µM
Kasumi-1 cells; Homo sapiens, Kasumi 1, 48 h
  IC50: > 60 µM
K562 cells; Homo sapiens, K562, 48 h
  IC50: > 60 µM
HL-60 cells; Homo sapiens, HL-60, 48 h
  IC50: 0.003 µM
MV4;11 cells
  IC50: 0.002 µM

## CC(C)(F)[C@H](N)C(=O)N1CCC[C@H]1B(O)O (relative stereo) [ARI-4268]
MB49 tumor; MB49 model, truncated dosing schedules
  Antitumor activity: displays antitumor activity in the MB49 mouse tumor model at doses indicating improved therapeutic index
[1]
  Oral activity: good oral activity—on par with highly orally active Val-boroPro
[2]
  MTD (survival): dramatically increased MTD (survival) without the need for a PGE2 inhibitor
PGE2
  Peritoneal PGE2 levels: does not induce peritoneal PGE2 levels to the same extent as Val-boroPro

## NC(N)=NCCC[C@H](N)C(=O)N1CCC[C@H]1B(O)O [Arg-boroPro]
CT26 cells
  EC50: > 1000 µM

## N[C@@H](CCC(=O)O)C(=O)N1CCC[C@H]1B(O)O [Glu-boroPro]
CT26 cells
  EC50: > 1000 µM
G-CSF; 20 μg/animal PO
  Average [G-CSF] at 6 hrs: 340 pg/mL
G-CSF; 200 μg/animal PO
  Average [G-CSF] at 6 hrs: 160 pg/mL
G-CSF; 200 μg/animal SC
  Average [G-CSF] at 6 hrs: 210 pg/mL
G-CSF; 2000 μg/animal PO
  Average [G-CSF] at 6 hrs: 2300 pg/mL
G-CSF; 2000 μg/animal SC
  Average [G-CSF] at 6 hrs: 16000 pg/mL

## N[C@@H](CC(=O)N1CCn2c(nnc2C(F)(F)F)C1)Cc1cc(F)c(F)cc1F [Sitagiptin, Sitagliptin]
G-CSF; 200 μg/animal SC
  Average [G-CSF] at 6 hrs: 100 pg/mL
G-CSF; 1000 μg/animal PO
  Average [G-CSF] at 6 hrs: 340 pg/mL
G-CSF; 2000 μg/animal SC
  Average [G-CSF] at 6 hrs: 950 pg/mL

## CC(C)(C)[C@H](N)C(=O)N1CCC[C@H]1B(O)O [ARI-4175, t-butylglycine-boroProline]
rhabdomyosarcoma
  Anti-tumor activity: significant immune-dependent anti-tumor activity
CT26 cells
  EC50: > 1000 µM
DAOY cells; DAOY, Medulloblastoma, read-out: IC50
  IC50: > 60 µM
Jurkat cells; T-ALL, read-out: IC50
  IC50: > 60 µM
THP-1 cells; THP-1, AML M5, 48 h, read-out: IC50
  IC50: 0.023 µM
MOLM-13 cells; MOLM-13, AML M5, 48 h, read-out: IC50
  IC50: 0.028 µM
HEL cells; AML/Erythroleukemis M6, 48 h, read-out: IC50
  IC50: > 60 µM
NOMO-1 cells; NOMO-1, AML M5, 48 h, read-out: IC50
  IC50: 0.03 µM
SET-2 cells; SET-2, AML/MPN, 48 h, read-out: IC50
  IC50: 0.002 µM
RDES-1 cells; RDES-1, Ewing's sarcoma, read-out: IC50
  IC50: > 60 µM
ONS-76 cells; ONS-76, Medulloblastoma, 48 h, read-out: IC50
  IC50: > 60 µM
U937 cells; U937, AML/histiocytic lymphoma M5, 48 h, read-out: IC50
  IC50: > 60 µM
IMR-5 cells; IMR-5, Neuroblastoma, 48 h, read-out: IC50
  IC50: > 60 µM
OCI-AML3 cells; OCI-AML3, AML M4, 48 h, read-out: IC50
  IC50: 0.019 µM
HT-1080 cells; HT-1080, Fibrosarcoma, 48 h, read-out: IC50
  IC50: > 60 µM
KG-1 cells; KG-1, AML M0, 48 h, read-out: IC50
  IC50: 0.035 µM
TC-71 cells; TC-71, Ewing's sarcoma, 48 h, read-out: IC50
  IC50: > 60 µM
SKM-1 cells; SKM-1, AML M5, 48 h, read-out: IC50
  IC50: 0.007 µM
MCF7 cells; MCF7, Breast, 48 h, read-out: IC50
  IC50: > 60 µM
Kasumi-1 cells; Kasumi-1, AML M2, 48 h, read-out: IC50
  IC50: > 60 µM
K562 cells; K562, CML/Erythroleukemia, 48 h, read-out: IC50
  IC50: > 60 µM
HL-60 cells; HL-60, AML M2, 48 h, read-out: IC50
  IC50: 0.016 µM
G-CSF; 20 μg/animal PO
  Average [G-CSF] at 6 hrs: 19000 pg/mL
G-CSF; 20 μg/animal SC
  Average [G-CSF] at 6 hrs: 65000 pg/mL
RS4;11 cells; RS4;11, AML/B-ALL, 48 h, read-out: IC50
  IC50: 0.096 µM
